# Test results published in publication PMC9077236, “Gs protein peptidomimetics as allosteric modulators of the β2-adrenergic receptor” (RSC Advances, 2018).
# Test system: β2AR (β2AR-Δ4 construct, C265 bimane-labelled)
# Assay: Conformational bimane fluorescence shift assay on purified mBBr-labelled β2AR
# Type: biochemical
# Conditions: increasing concentrations of ISO, saturating at 250 μM and 500 μM
# Procedure: To further investigate their pharmacological profiles, selected peptidomimetics were tested in a bimane fluorescence shift assay (see ESI ^†). […] Stimulation of purified, C265 fluorophore-labelled β2AR with increasing concentrations of ISO results in a concentration-dependent decrease in the fluorescence intensity (FI) and a red-shift of the maximum emission wavelength (λmax) of the bimane-fluorophore probe (Fig. 5A).
# Bimane-fluorescence curves in presence of agonist or peptidomimetic alone or in combination were normalised to that of the receptor alone.
# Conformational biman e fluorescence assay
# Baculovirus es containing the β2AR-Δ4 construct (full-length β 2AR with four mutated
# cystein es (C77V, C327S , C378 A and C406A10,11) were generated as pr eviousl y d escribed b y
# Rosenbaum et al.12 The modi fied β 2AR wa s ex pre s sed in S f9 insect cel ls using r ecombi na nt
# baculovi rus and pu rified b y M1-anti- FLAG im munoaffinit y chr omatograph y. The F LAG -
# purified receptor was l abe lled with monobromobimane (mBBr) and purified b y alprenolol
# affinit y chr omato graph y as described b y Yao et al. 13 with one minor change; the modified β2AR
# was labelled with an excess of 10 µM mBBr (instead of equivalent amounts of β 2AR and
# mBBr). […]
# ligands and peptide s were subtracted from the samples. Data was analysed b y use of the […]
smiles,measurement,value
"CC(C)NC[C@H](O)c1ccc(O)c(O)c1 [ISO, (−)-isoproterenol]",Effect on bimane fluorescence (FI and λmax) / receptor conformation,induces an active receptor conformation in a concentration-dependent manner
